Data: ChEMBL document CHEMBL4308841, “Synthesis, in vitro antiproliferative activity, and kinase inhibitory effects of pyrazole-containing diarylureas and diarylamides” (Eur J Med Chem, 2018)

What follows are compounds tested on SR (assay: Growth inhibition of human SR cells assessed as cell growth at 0.1 uM incubated for 48 hrs by sulforhodamine B assay relative to control). Settings: read-out: Activity.
Format: functional

Compound	growth at 0.1 µM [%]
O=C(Nc1cccc(-n2cc(-c3ccncc3)c(-c3cc(O)cc(Cl)c3)n2)c1)Nc1ccc(Cl)c(C(F)(F)F)c1	98

These compounds were tested on K562 (assay: Growth inhibition of human K562 cells assessed as cell growth at 100 uM incubated for 48 hrs by sulforhodamine B assay relative to control). Settings: K562, 48 h, read-out: Activity.
Format: functional

Compound	growth at 100 µM [%]
O=C(Nc1cccc(-n2cc(-c3ccncc3)c(-c3cc(O)cc(Cl)c3)n2)c1)Nc1ccc(Cl)c(C(F)(F)F)c1	-9

These compounds were tested on COLO 205 (assay: Growth inhibition of human COLO205 cells assessed as cell growth at 0.1 uM incubated for 48 hrs by sulforhodamine B assay relative to control). Settings: COLO 205, 48 h, read-out: Activity.
Format: functional

Compound	growth at 0.1 µM [%]
O=C(Nc1cccc(-n2cc(-c3ccncc3)c(-c3cc(O)cc(Cl)c3)n2)c1)Nc1ccc(Cl)c(C(F)(F)F)c1	95

Each compound was assayed on RPMI-8226 (assay: Growth inhibition of human RPMI8226 cells assessed as cell growth at 0.01 uM incubated for 48 hrs by sulforhodamine B assay relative to control). Settings: RPMI-8226, 48 h, read-out: Activity.
Format: functional

Compound	growth at 0.01 µM [%]
O=C(Nc1cccc(-n2cc(-c3ccncc3)c(-c3cc(O)cc(Cl)c3)n2)c1)Nc1ccc(Cl)c(C(F)(F)F)c1	101

Each compound was assayed on ACHN (assay: Growth inhibition of human ACHN cells assessed as cell growth at 100 uM incubated for 48 hrs by sulforhodamine B assay relative to control). Settings: read-out: Activity.
Format: functional

Compound	growth at 100 µM [%]
O=C(Nc1cccc(-n2cc(-c3ccncc3)c(-c3cc(O)cc(Cl)c3)n2)c1)Nc1ccc(Cl)c(C(F)(F)F)c1	-25

These compounds were tested on SW-620 (assay: Growth inhibition of human SW620 cells assessed as cell growth at 0.1 uM incubated for 48 hrs by sulforhodamine B assay relative to control). Settings: SW-620, 48 h, read-out: Activity.
Format: functional

Compound	growth at 0.1 µM [%]
O=C(Nc1cccc(-n2cc(-c3ccncc3)c(-c3cc(O)cc(Cl)c3)n2)c1)Nc1ccc(Cl)c(C(F)(F)F)c1	98

What follows are compounds tested on NCI-H226 (assay: Growth inhibition of human NCI-H226 cells assessed as cell growth at 1 uM incubated for 48 hrs by sulforhodamine B assay relative to control). Settings: NCI-H226, 48 h, read-out: Activity.
Format: functional

Compound	growth at 1 µM [%]
O=C(Nc1cccc(-n2cc(-c3ccncc3)c(-c3cc(O)cc(Cl)c3)n2)c1)Nc1ccc(Cl)c(C(F)(F)F)c1	96

Each compound was assayed on SK-OV-3 (assay: Growth inhibition of human SKOV3 cells incubated for 48 hrs by sulforhodamine B assay). Settings: SK-OV-3, 48 h, read-out: GI50.
Format: functional, cell-based

Compound	GI50 [µM]
O=C(Nc1cccc(-n2cc(-c3ccncc3)c(-c3cc(O)cc(Cl)c3)n2)c1)Nc1ccc(Cl)c(C(F)(F)F)c1	4.11

Same assay, conditions: SK-OV-3, 48 h, read-out: LC50 (the source's name)

Compound	CC50 [µM]
O=C(Nc1cccc(-n2cc(-c3ccncc3)c(-c3cc(O)cc(Cl)c3)n2)c1)Nc1ccc(Cl)c(C(F)(F)F)c1	> 100

Same assay, conditions: SK-OV-3, 48 h, read-out: TGI

Compound	TGI [µM]
O=C(Nc1cccc(-n2cc(-c3ccncc3)c(-c3cc(O)cc(Cl)c3)n2)c1)Nc1ccc(Cl)c(C(F)(F)F)c1	30.7

Same assay, conditions: SK-OV-3, 48 h, read-out: pGI50 (converted)

Compound	GI50 [µM]
O=C(Nc1cccc(-n2cc(-c3ccncc3)c(-c3cc(O)cc(Cl)c3)n2)c1)Nc1ccc(Cl)c(C(F)(F)F)c1	4.07

Same assay, conditions: SK-OV-3, 48 h, read-out: pLC50 (the source's name) (converted)

Compound	CC50 [µM]
O=C(Nc1cccc(-n2cc(-c3ccncc3)c(-c3cc(O)cc(Cl)c3)n2)c1)Nc1ccc(Cl)c(C(F)(F)F)c1	> 100

Same assay, conditions: SK-OV-3, 48 h, read-out: pTGI (converted)

Compound	TGI [µM]
O=C(Nc1cccc(-n2cc(-c3ccncc3)c(-c3cc(O)cc(Cl)c3)n2)c1)Nc1ccc(Cl)c(C(F)(F)F)c1	30.9

These compounds were tested on LOX IMVI (assay: Growth inhibition of human LOXIMVI cells assessed as cell growth at 100 uM incubated for 48 hrs by sulforhodamine B assay relative to control). Settings: read-out: Activity.
Format: functional

Compound	growth at 100 µM [%]
O=C(Nc1cccc(-n2cc(-c3ccncc3)c(-c3cc(O)cc(Cl)c3)n2)c1)Nc1ccc(Cl)c(C(F)(F)F)c1	-89

These compounds were tested on MCF7 (assay: Growth inhibition of human MCF7 cells assessed as cell growth at 100 uM incubated for 48 hrs by sulforhodamine B assay relative to control). Settings: MCF7, 48 h, read-out: Activity.
Format: functional

Compound	growth at 100 µM [%]
O=C(Nc1cccc(-n2cc(-c3ccncc3)c(-c3cc(O)cc(Cl)c3)n2)c1)Nc1ccc(Cl)c(C(F)(F)F)c1	-43

The compounds below were run on T47D (assay: Growth inhibition of human T47D cells assessed as cell growth at 1 uM incubated for 48 hrs by sulforhodamine B assay relative to control). Settings: read-out: Activity.
Format: functional

Compound	growth at 1 µM [%]
O=C(Nc1cccc(-n2cc(-c3ccncc3)c(-c3cc(O)cc(Cl)c3)n2)c1)Nc1ccc(Cl)c(C(F)(F)F)c1	53

What follows are compounds tested on MDA-MB-468 (assay: Growth inhibition of human MDA-MB-468 cells incubated for 48 hrs by sulforhodamine B assay). Settings: MDA-MB-468, 48 h.
Format: functional, cell-based

Compound	IC50 [µM]
O=C(Nc1cccc(-n2cc(-c3ccncc3)c(-c3cc(O)cc(Cl)c3)n2)c1)Nc1ccc(Cl)c(C(F)(F)F)c1	2.08

Same assay, conditions: MDA-MB-468, 48 h, read-out: GI50

Compound	GI50 [µM]
O=C(Nc1cccc(-n2cc(-c3ccncc3)c(-c3cc(O)cc(Cl)c3)n2)c1)Nc1ccc(Cl)c(C(F)(F)F)c1	2.05

Same assay, conditions: MDA-MB-468, 48 h, read-out: LC50 (the source's name)

Compound	CC50 [µM]
O=C(Nc1cccc(-n2cc(-c3ccncc3)c(-c3cc(O)cc(Cl)c3)n2)c1)Nc1ccc(Cl)c(C(F)(F)F)c1	> 100

Same assay, conditions: MDA-MB-468, 48 h, read-out: TGI

Compound	TGI [µM]
O=C(Nc1cccc(-n2cc(-c3ccncc3)c(-c3cc(O)cc(Cl)c3)n2)c1)Nc1ccc(Cl)c(C(F)(F)F)c1	84.2

Same assay, conditions: MDA-MB-468, 48 h, read-out: pGI50 (converted)

Compound	GI50 [µM]
O=C(Nc1cccc(-n2cc(-c3ccncc3)c(-c3cc(O)cc(Cl)c3)n2)c1)Nc1ccc(Cl)c(C(F)(F)F)c1	2.63

Same assay, conditions: MDA-MB-468, 48 h, read-out: pLC50 (the source's name) (converted)

Compound	CC50 [µM]
O=C(Nc1cccc(-n2cc(-c3ccncc3)c(-c3cc(O)cc(Cl)c3)n2)c1)Nc1ccc(Cl)c(C(F)(F)F)c1	> 100

Same assay, conditions: MDA-MB-468, 48 h, read-out: pTGI (converted)

Compound	TGI [µM]
O=C(Nc1cccc(-n2cc(-c3ccncc3)c(-c3cc(O)cc(Cl)c3)n2)c1)Nc1ccc(Cl)c(C(F)(F)F)c1	8.51

These compounds were tested on UO-31 (assay: Growth inhibition of human UO31 cells assessed as cell growth at 1 uM incubated for 48 hrs by sulforhodamine B assay relative to control). Settings: UO-31, 48 h, read-out: Activity.
Format: functional

Compound	growth at 1 µM [%]
O=C(Nc1cccc(-n2cc(-c3ccncc3)c(-c3cc(O)cc(Cl)c3)n2)c1)Nc1ccc(Cl)c(C(F)(F)F)c1	84
